# Laboratory results as given in patent US20160089365A1, “IMMUNOSTIMULATORY COMPOUND” (Eisai R&D Management Co., Ltd., priority 2014, published 2016).
# Entries after “also recorded” stand apart in the source; their conditions may differ.
# Assays:
# [1] = tested on: IFN-γ+ cells in CD8+ T cells of draining lymph nodes; assay: IFN-γ staining analysis of CD8+ T cells derived from draining lymph nodes in BNL 1MEA.7R.1 xenografts in wild-type mice; format: in vivo, Mouse (BALB/cAnNCrlCrlj; conditions: oral 10 mg/kg once a day for 7 days, Day 8
# Protocol: Draining lymph nodes derived from BNL 1MEA.7R. 1 xenograft model in wild-type mice 1 day after once-daily oral administration of vehicle or lenvatinib mesilate (10 mg/kg) for 7 days in Referential Ex. 1 were isolated and mashed by a 5-mL syringe. The cell number in suspension was calculated and adjusted to 2.0×10^6 cells/mL with RPMI1640 containing 10% FBS, 100 U/mL penicillin, and 100 μg/mL streptomycin. One hundred microliters per well of the resultant cell suspension were plated in a 96-well cell culture cluster round bottom plate (Corning Incorporated) and cultured with BD Goldi-Stop™ (final concentration [conc.] 4 μL/6 mL) for 5 hours in 5% CO2 at 37° C. […] After washing with 200 μL of BD Perm/Wash buffer 2 times, the resultant cells were resuspended with 200 μL of BD Perm/Wash buffer, and analyzed to detect percentage of IFN-γ-positive cells in CD3- and CD8-positive cells by FACSAriaII SORP cell sorter (Becton, Dickinson and company) with BD FACSDiva 6.1.3 software (Becton, Dickinson and company). […]
# Data are expressed as mean±SD. The differences in percentage of IFN-γ-positive cells in CD8^+ T cells between vehicle- and lenvatinib mesilate-treated groups were analyzed by the unpaired t test
# [2] = tested on: tumor-associated macrophage (TAM) population in tumor; assay: Immune population analysis in BNL 1MEA.7R.1 xenograft tumor of wild-type mice by flow cytometry; format: in vivo, Mouse (BALB/cAnNCrlCrlj; conditions: oral 10 mg/kg once a day for 7 days, Day 8
# Protocol: Half-cut tumor samples collected from BNL 1MEA.7R.1 xenograft model in wild-type mice 1 day after the administration of vehicle or lenvatinib mesilate (10 mg/kg) in Referential Ex. 1 (Group 4, 6, 7, and 8) were minced with a razor on ice. The tumor fragments were digested with collagenase (1900 U/mL) and deoxyribonuclease I (160 KIU/mL) in HBSS for 1 hour at 37° C. with magnetic stirring in flasks. After filtering through cell strainer (pore size 70 μm), harvested cells were washed 3 times with flow cytometry buffer (PBS supplemented with 0.5% bovine serum albumin and 2 mmol/L EDTA). Cells were resuspended with 200 μL of FCM buffer containing 5 μg/mL Mouse BD Fc Block™ (BD biosciences), and incubated at 4° C. for 10 minutes. Antibody cocktail (dilution; 1:2 in FCM buffer) 1 and 2 were prepared as below.
# One hundred microliters of cell suspension was mixed with 100 μL of the antibody cocktail 1 or 2 in each well of two 96-well cell culture round bottom plates (Corning Incorporated), and incubated at 4° C. for 30 minutes in a light protected. […] Data were analyzed by FCM analysis software FlowJo 7.6.5 (Tree Star, Inc.).
# Data are expressed as mean±SD. The differences in percentage of target cells in CD45^+ cells between vehicle- and lenvatinib mesilate-treated groups were analyzed by the unpaired t test.
# [3] = Body weight of mice during the xenograft study; format: in vivo, Mouse; conditions: athymic and wild-type mice, oral 3 and 10 mg/kg once daily for 7 days, during the study period
# Protocol: (§1) Lenvatinib mesilate (3 and 10 mg/kg) or vehicle was orally administered at 0.1 mL/10 g body weight, once daily for 7 days (Day 1-7). The tumor volume and body weight of mice were measured on Day 1, 3, 6, and 8.
# [4] = tested on: BNL 1MEA.7R.1 murine hepatocellular carcinoma xenografts; assay: Antitumor effects in BNL 1MEA.7R.1 murine hepatocellular carcinoma xenografts in wild-type mice; format: in vivo, Mouse (BALB/cAnNCrlCrlj; conditions: Day 8
# Protocol: The BNL 1MEA.7R. 1 murine hepatocellular carcinoma cells were cultured in Dulbecco's minimal essential medium (DMEM) supplemented with 10% heat-inactivated (56° C., 30 minutes) fetal bovine serum (FBS) and 100 U/mL penicillin, 100 μg/mL streptomycin, 1-glutamine (2 mmol/L) in humidified atmosphere of 5% CO2 at 37° C. This tumor cell line was developed from BALB/c mouse. The cells were washed with phosphate buffered saline (PBS), harvested with 0.25% trypsin-EDTA, and suspended with 50% BD Matrigel™ (BD biosciences) in the Hank's balanced salt solution (HBSS) at a density of 1×10^8 cells/mL. A 0.1 mL aliquot of the cell suspension was inoculated subcutaneously into the right flank of each mouse. Fifty days after the inoculation (Day 1), 15 out of 25 athymic mice and 25 out of 33 wild-type mice were selected based on their tumor volumes, shapes of tumors, physical condition, and body weights. Then the selected athymic and wild-type mice were randomly divided into 3 groups (Group 1-3 in the following table “Treatment Groups”) and 5 groups (Group 4-8), respectively. Animals assigned to Group 4, 6, 7, and 8 were used in Ex. 1 and 2. The mean tumor volumes of athymic and wild-type mice assigned to 8 groups were 169.5 and 157.5 mm^3, respectively, on Day 1.
# as §1
# Tumor volume (mm^3)=length (mm)×width^2 (mm^2)×1/2
# (§2) Data are expressed as mean±SD. The differences in relative tumor volume on Day 8 between vehicle- and lenvatinib mesilate-treated groups (3 and 10 mg/kg) in athymic and wild-type mice were analyzed by one-way analysis of variance followed by the Dunnett multiple comparison test, respectively. […]
# To compare antitumor activities of lenvatinib mesilate between different strains, differences in % TGI of lenvatinib mesilate between athymic and wild-type mice at each dose were analyzed by the unpaired t test.
# [5] = tested on: BNL 1MEA.7R.1 murine hepatocellular carcinoma xenografts; assay: Antitumor effects in BNL 1MEA.7R.1 murine hepatocellular carcinoma xenografts in athymic mice; format: in vivo, Mouse (CAnN.Cg-Foxn1nu/CrlCrlj; conditions: oral 3 and 10 mg/kg once daily for 7 days, Day 8
# Protocol: The BNL 1MEA.7R. 1 murine hepatocellular carcinoma cells were cultured in Dulbecco's minimal essential medium (DMEM) supplemented with 10% heat-inactivated (56° C., 30 minutes) fetal bovine serum (FBS) and 100 U/mL penicillin, 100 μg/mL streptomycin, 1-glutamine (2 mmol/L) in humidified atmosphere of 5% CO2 at 37° C. This tumor cell line was developed from BALB/c mouse. The cells were washed with phosphate buffered saline (PBS), harvested with 0.25% trypsin-EDTA, and suspended with 50% BD Matrigel™ (BD biosciences) in the Hank's balanced salt solution (HBSS) at a density of 1×10^8 cells/mL. A 0.1 mL aliquot of the cell suspension was inoculated subcutaneously into the right flank of each mouse. Fifty days after the inoculation (Day 1), 15 out of 25 athymic mice and 25 out of 33 wild-type mice were selected based on their tumor volumes, shapes of tumors, physical condition, and body weights. […]
# Lenvatinib mesilate (3 and 10 mg/kg) or vehicle was orally administered at 0.1 mL/10 g body weight, once daily for 7 days (Day 1-7). The tumor volume and body weight of mice were measured on Day 1, 3, 6, and 8. […]
# as §2
smiles,measurement,setting,value
"COc1cc2nccc(Oc3ccc(NC(=O)NC4CC4)c(Cl)c3)c2cc1C(N)=O [lenvatinib mesilate, 4-(3-chloro-4-(cyclopropylaminocarbonyl)aminophenoxy)-7-methoxy-6-quinolinecarboxamide]",percentage of IFN-γ+ cells in CD8+ T cells in dLN compared to vehicle,[1],significantly increased
same,percentage of TAM population (CD45+CD11b+Ly6G-F4/80+Ly6Clow) in total CD45+ cells compared to vehicle,[2],significant reduction
same,percentage of immature TAM (CD45+CD11b+Ly6G-F4/80-Ly6Chigh) in total CD45+ cells compared to vehicle,[2],increased
same,body weight loss,[3],Any severe body weight loss was not observed
same,% TGI in wild-type mice compared to athymic mice at each dose,[4]; oral 3 and 10 mg/kg once daily for 7 days,significantly larger
same,tumor shrinkage in individual animals,"[4]; wild-type mice, both treatment groups (3 and 10 mg/kg)",tumors from all animals shrank
same,tumor volume compared to vehicle,"[4]; wild-type mice, oral 3 and 10 mg/kg once daily for 7 days",significant reduction in tumor volume
same,tumor volume compared to vehicle,[5],no significant difference; also recorded: only tumor growth delay
